Experimental findings from patent US11123378B2, “Compositions comprising bacterial strains” (4D Pharma Research Limited, priority 2017, dated 2021) are described below.

For the assay, the system named is cerebral tissues in the cerebral ischemia-reperfusion I/R model in mice. The experiment in a line: Histological evaluation (H&E) of cerebral tissues in the cerebral ischemia-reperfusion I/R model. Format: in vivo. To be noted: right hemisphere hippocampus; termination day 15 or day 29; compared to PBS negative control (2M).

Text: At termination of the experiment, at either day 15 or day 29, the mice cerebral tissues were subjected to histopathological examinations.
The tissues were studied for pyknotic score (which assesses the extent of cell necrosis and death) and for vacuolisation (which assesses the extent of degeneration similar to apoptosis).
At termination the animals were sacrificed by CO2 asphyxiation. Where possible, half of the animals were sacrificed on day 15, and the other half were sacrificed on day 29. […] Brains were also harvested following saline perfusion. The right hemisphere of each brain was fixed with 2.5% Paraformaldehyde and stored at 2-8° C.
The sections of the right hemisphere of all animals per group were loaded onto slides followed by histological examination. Tissues were trimmed, embedded in paraffin, sectioned at approximately 5 microns thickness and stained with Hematoxylin & Eosin (H&E) (as well as with TUNEL reagents) using standardized protocols. The slides were examined under a light microscope. […]
The numbers of karyopy-knosis and apoptotic cells were counted, and the mean values were calculated. […] Ten field of ×20 magnifications were evaluated for the pyknosis and vacuolization score as follows.
Pyknosis and vacuolization, semi-quantitative scores: • 1. […]
A score was determined for each field of ×20 magnification for each mouse in a given sample group.

For the compound `C[C@]12N[C@H](Cc3ccccc31)c1ccccc12` [MK-801], the “semi-quantitative pyknosis score (H&E)” value is listed as “reduced pyknosis score” and the “semi-quantitative vacuolisation score (H&E)” value is “did not reduce the vacuolisation score”.
